Test results: patent publication US20260115162A1, “COMPOSITION OR ASSOCIATION OF COMPOUNDS PREFERABLY FOR USE IN THE TREATMENT OF NERVOUS DISEASES IN PARTICULAR NEURODEGENERATIVE DISEASES, METHOD FOR THE PREPARATION OF SUCH COMPOSITION OR ASSOCIATION OF COMPOUNDS AND USES THEREOF” (PHARMACEUTICA SAN MARCO S.R.L., priority 2022, published 2026)

Legend:
mice treated with Aβ icv = experiment: Splash test in SHAM mice and mice treated with Aβ icv (FIG. 4); assay type: in vivo; conditions: after 7 days, HA4 200 μg, βCP 50 μg, βBA 100 μg, FE 50 μg sublingually
Procedure: (§1) The Aβ1-42, obtained from Tocris (Bristol, UK), was dissolved in sterile double-distilled pyrogenic-free water, as vehicle, to obtain a final concentration 4 μM [Colaianna M et al. 2010]. Mice were anesthetized with a solution (0.85 in ml/kg, i.p.), containing ketamine (Sigma Aldrich, Milan, Italy, 100 mg/10 ml), xylazine (Sigma Aldrich, Milan, Italy, 100 mg/10 ml) and acepromazine (prequillant, ATI Azienda Terapeutica Veterinaria Srl, 10 mg/10 ml) dissolved in saline solution. […] At the time of dissection, the correct needle track was assessed. […]
Ten μl of the solution (or vehicle alone) were administered sublingually to mice. Brain βCP, FE e βBA were quantified in a separate subset of mice at 5, 15 and 30 min after their administration.
(§2) All behavioral experiments were conducted at 5 or 30 min after sublingual administrations of βBA or vehicle in mice treated with SHAM or AP. Based on the observed behavioral results, neurochemical and biochemical quantifications were performed 30 min after administration of βCP, FE, and βBA or vehicle in SHAM- or Aβ-treated mice.
Splash test. […] The test was videotaped and later an observer, blind to the trial, scored for latency to the first grooming event and duration of self-care behavior during the period of the test (5 min).

[1] = Pharmacokinetics of βBA and AKBA via os in healthy volunteers, fasted and hyperlipidic meal (Sterk V et al. 2004); assay type: in vivo, humans
Source text: Indeed, βBA has a concentration in the blood: • at least 6 times higher than AKBA both in the fasting condition and with a hyperlipidic meal; • increased by 6 times after hyperlipidic meal so that the plasma/os ratio passes from 0.09 to 0.55.

[2] = Plasma levels of βBA and AKBA via os in patients (Gerbeth K et al. 2011); assay type: in vivo, humans
catG (cathepsin G) = target: T1, catG (cathepsin G) (Homo sapiens, UniProt P08311); conditions: in vitro; read-out: IC50 catG (cathepsin G) inhibition; cited from earlier work
T1 sequence (P08311 21-244): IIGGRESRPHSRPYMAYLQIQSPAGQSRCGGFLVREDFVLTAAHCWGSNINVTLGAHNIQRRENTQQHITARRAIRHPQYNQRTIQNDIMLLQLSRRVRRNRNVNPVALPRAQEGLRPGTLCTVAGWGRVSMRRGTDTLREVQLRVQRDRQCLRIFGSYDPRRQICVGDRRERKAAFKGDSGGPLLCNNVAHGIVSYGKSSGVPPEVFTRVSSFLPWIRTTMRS

serotonin (5-HT) = experiment: Serotonin (5-HT) levels in mice treated with Aβ icv (FIG. 5a); assay type: in vivo
Procedure: as §1
as §2, with “mice. […]” for “mice.”
5-HT, noradrenaline (NA), and KYN levels were measured in the PFC and HIPP of mice by HPLC coupled with an electrochemical detector (Ultimate ECD, Thermo Scientific Dionex, Milan, Italy) as already reported [Francavilla M et al. 2012, Morgese M G et al. 2016]. […] GLU concentrations were determined by HPLC coupled with fluorescence detection (emission length 460 nm; excitation length 340 nm), as previously published [Francavilla M et al. 2012]. […]

## C[C@H]1[C@H](C)CC[C@]2(C)CC[C@]3(C)C(=CC[C@@H]4[C@@]5(C)CC[C@@H](O)[C@](C)(C(=O)O)[C@@H]5CC[C@]43C)[C@H]12 [βBA, β-boswellic acid]
Mice treated with Aβ icv
  Splash test latency time (antidepressant effect): antidepressant effect
[1]; after hyperlipidic meal
  plasma/os ratio: 0.55
[1]; both fasting and hyperlipidic meal
  blood concentration of βBA relative to AKBA: at least 6 times
[1]; fasting condition
  plasma/os ratio: 0.09
[1]; healthy volunteers, fasted conditions
  Δos/plasma: 10.9 fasted
[1]; healthy volunteers, hyperlipidic fed conditions
  Δos/plasma: 1.82 hyperlipidic
[1]; healthy volunteers, hyperlipidic meal vs fasted
  increase in blood concentration / intestinal absorption induced by a hyperlipidic meal: 6 times
[2]
  Δos/plasma: 14.3
catG (cathepsin G)
  IC50: 800 nM
Serotonin (5-HT)
  Serotonin (5-HT) levels: progressively greater serotonergic activity
